≈ marks a conversion by molar mass, not a printed value. Like-named read-outs stand apart in the source and are kept apart here.
Columns and labels:
E. coli DNA gyrase = E. coli DNA gyrase (Escherichia coli, UniProt P0AES4); test: E. coli gyrase DNA cleavage assay; assay type: biochemical; design: key to Gyrase inhibition strong+ / weak −: + strong inhibition; − weak inhibition in comparison to compound 16; conditions: for CC50: E. coli gyrase DNA cleavage, read-out: CC50 (concentration at half-maximum cleavage); for Gyrase inhibition strong+ / weak −: qualitative DNA cleavage assay at 1 μM and 10 μM, in comparison to compound 16
Description: The target activity of the synthesized derivatives was investigated using a DNA cleavage assay with purified and enzymatically active E. coli DNA gyrase[8] (see SI). In this assay, albicidin‐stabilized complexes of gyrase and plasmid DNA are trapped, and subsequently denatured and deproteinated to reveal DNA linearized by gyrase. […] For the best performing compounds, which were able to fully stabilize the cleavage complex at a concentration of 1 μM, the concentrations at half‐maximum cleavage (CC50) were determined (Figure 3).
1.2 Escherichia coli Gyrase Cleavage Inhibition Assay
E. coli gyrase cleavage assays were executed by setting up a master mix including 0.25 µg relaxed plasmid (pBR322) in 35 mM Tris-HCl (pH 7.5), 24 mM KCl, 4 mM MgCl2, 2 mM dithithreitol (DTT), 1.8 mM spermidine, 1 mM ATP, 6.5% (wt/vol) glycerol and 0.1 mg/ml bovine serum albumin per reaction.
Of this stock solution, 13.2 µL was aliquoted for each reaction into 1.5 mL Eppendorf tubes and supplemented with 0.3 µL of the appropriate compound dilution or DMSO with a […] DMSO concentration of 2% per reaction. The reactions were started with 1.5 µL of 50 nM (pre-screening) or 40 nM (IC50 determinations) wt E. coli gyrase in dilution buffer (50 mM Tris-HCl (pH 7.5), 100 mM KCl, 2 mM DTT, 1 mM EDTA, and 50% (wt/vol) glycerol) for a […] volume of 15 µL. Reactions were incubated at 37°C for 30 minutes before addition of 1.5 µL 0.2% (wt/vol) SDS and 0.75 µL proteinase K (0.2 mg/mL) and further incubation at 37°C for 30 minutes to trap cleavage complexes. Reactions were stopped with 15 µL chloroform:isoamyl alcohol (24: 1 v/v) and 15 µL of STEB (40% (wt/vol) sucrose, […] Tris-Cl pH 8, 10 mM EDTA, 0.5 mg/mL bromophenol blue). After brief vortexing and centrifugation at 2,300g for 5 min, 15 µL of the aqueous phase was loaded onto 1% (wt/vol) agarose in TAE (Tris-acetate […] and EDTA […]) gels supplemented with 10 µg/mL ethidium bromide.
The gels were run at 85 V for 2 hours.
DNA was visualized (602/50, UV Trans, auto optimal exposure) with a ChemiDoc MP (Bio-Rad Laboratories Inc., equipped with ImageLab Touch Software v2.0.0.27) and the percentage of cleaved DNA relative to the total amount of DNA per lane was determined with ImageJ software.[2] IC50 curves were generated in GraphPad Prism (v10.0.0) using the non-linear regression curve fit variable slope with four parameters and least squares regression.

Bacillus subtilis DSM 10 = test: MIC determination (broth microdilution); assay type: cell-based; conditions: DSM10, read-out: MIC B. sub.
Description: (§1) After completing the syntheses, the antibacterial activity of A‐variations 4–24 was assessed by determination of MIC values against a basic set of gram‐negative and gram‐positive bacteria (Table 1). The monocyclic derivatives 4–8 featuring a cyano‐, trifluoromethyl‐, methoxy‐ and fluoro‐ substituent in para‐position were very active against the gram–negative E. coli and S. typhimurium strains with MIC values in the same range as 3rd Gen albicidin 3 or ciprofloxacin which is the gold standard for gyrase inhibitors. […] These findings are in agreement with previous studies showing good activities for cyano, trifluoromethyl, methoxy and fluoro substituents in the para‐position of different aromatic rings in the building block A.[12, 13] The activity of the monocyclic derivatives 4–8 against the gram‐positive strains B. subtilis and M. luteus were similar but slightly less pronounced compared to the lead structure 3.
(§2) 1.1 Determination of Minimal Inhibitory Concentrations (MIC)
(§3) Minimal inhibitory concentration (MIC) against selected bacterial strains values were determined according to the ninth edition of the Approved Standard M07-A9.[1] 20 μL of cryo stocks of bacterial strains were suspended in 20 mL LB medium (Lysogeny broth: 10 g/L peptone, 5 g/L yeast extract, 5 g/L NaCl). Following incubation overnight at 37°C, 200 rpm, the test inoculum was adjusted by 0.5 McFarland Standard in cation adjusted Mueller-Hinton broth (BBLTM Mueller-Hinton Broth II, Becton, Dickinson and Company, New Jersey, USA) to approximately 1x10^6 CFU mL-1. 95 μL of the bacterial inoculum were applied per well of a 96-well plate. Albicidin and albicidin derivatives 3−24 were dissolved in DMSO (100%) to an initial concentration of 2560 μg/mL and serially diluted in DMSO (100%). Initial solution and serial dilutions of Ciprofloxacin were prepared in 0.1 N HCL, respectively. 5 μL of each antibiotic dilution were added to the microdilution tray to reach albicidin concentrations of 128 μg/mL to 0.016 μg/mL per well. One row of each well plate served as a growth control without antibiotic substances and another row of the microdilution tray served as sterility control (only MHB II - media). The antimicrobial effect of the solvent (DMSO) was tested by adding 5 μL DMSO to several wells. Purity check and cell titer control were performed according to International S tandard M07-A9 on Mueller-Hinton II Agar (Mueller Hinton II Broth, 15 g/L agar-agar). Both microdilution trays and agar plates were incubated at 30−37°C for 16 h and subsequently analyzed for growth inhibition by naked eye. The following primary panel of microorganisms were purchased from German Collection of Microorganisms and Cell Cultures (DSMZ):
(§4) Escherichia coli DSM 1116
(§5) Micrococcus luteus DSM 1790
(§6) Mycobacterium phlei DSM 750
(§7) Salmonella typhimurium TA100 was kindly provided by Prof. Dr. Vera Meyer (Technische Universität Berlin). […]
(§8) was purchased as part of the single gene knockout library of E. coli K12 BW25113 (Keio collection) from Horizon Discovery group plc (Cambridge, UK).

[1] = system: Micrococcus luteus DSM 1790; test: MIC determination (broth microdilution); assay type: cell-based; conditions: DSM1790, read-out: MIC M. luteus
Description: as §1, §2, §3, §4, §5, §6, §7, §8

E. coli BW25113 = test: MIC determination (broth microdilution); assay type: cell-based
Description: as §1, §2, §3, §4, §5, §6, §7, §8

[2] = system: Mycobacterium phlei DSM 750; test: MIC determination (broth microdilution); assay type: cell-based
Description: as §1, §2, §3, §4, §5, §6, §7, §8

E. coli DSM1116 = test: MIC determination (broth microdilution); assay type: cell-based
Description: as §1, §2, §3, §4, §5, §6, §7, §8

[3] = Reverse-phase HPLC retention time as estimate of lipophilicity; assay type: physicochemical; conditions: indicator of lipophilicity
Description: As mentioned before, albicidin 1 is a rather hydrophobic compound and improving its aqueous solubility is desirable. The lipophilicity of drug molecules is commonly characterized by the octanol/water partition coefficient (logP). An alternative approach relies on the correlation between lipophilicity and the retention time (Rt) on a reverse‐phase HPLC column.[31] This approach works well if structurally related compounds are compared as is the case for this SAR study. Rt was thus used to estimate the hydrophilicity of albicidin 1 and its derivatives 2–24 (Table 1).[32]

[4] = Escherichia coli, BW25113; read-out: MIC E. coli BW25113
[5] = Mycolicibacterium phlei, DSM750; read-out: MIC M. phlei
[6] = Escherichia coli, DSM1116; read-out: MIC E. coli DSM1116

Sequence of E. coli DNA gyrase (P0AES4 whole entry): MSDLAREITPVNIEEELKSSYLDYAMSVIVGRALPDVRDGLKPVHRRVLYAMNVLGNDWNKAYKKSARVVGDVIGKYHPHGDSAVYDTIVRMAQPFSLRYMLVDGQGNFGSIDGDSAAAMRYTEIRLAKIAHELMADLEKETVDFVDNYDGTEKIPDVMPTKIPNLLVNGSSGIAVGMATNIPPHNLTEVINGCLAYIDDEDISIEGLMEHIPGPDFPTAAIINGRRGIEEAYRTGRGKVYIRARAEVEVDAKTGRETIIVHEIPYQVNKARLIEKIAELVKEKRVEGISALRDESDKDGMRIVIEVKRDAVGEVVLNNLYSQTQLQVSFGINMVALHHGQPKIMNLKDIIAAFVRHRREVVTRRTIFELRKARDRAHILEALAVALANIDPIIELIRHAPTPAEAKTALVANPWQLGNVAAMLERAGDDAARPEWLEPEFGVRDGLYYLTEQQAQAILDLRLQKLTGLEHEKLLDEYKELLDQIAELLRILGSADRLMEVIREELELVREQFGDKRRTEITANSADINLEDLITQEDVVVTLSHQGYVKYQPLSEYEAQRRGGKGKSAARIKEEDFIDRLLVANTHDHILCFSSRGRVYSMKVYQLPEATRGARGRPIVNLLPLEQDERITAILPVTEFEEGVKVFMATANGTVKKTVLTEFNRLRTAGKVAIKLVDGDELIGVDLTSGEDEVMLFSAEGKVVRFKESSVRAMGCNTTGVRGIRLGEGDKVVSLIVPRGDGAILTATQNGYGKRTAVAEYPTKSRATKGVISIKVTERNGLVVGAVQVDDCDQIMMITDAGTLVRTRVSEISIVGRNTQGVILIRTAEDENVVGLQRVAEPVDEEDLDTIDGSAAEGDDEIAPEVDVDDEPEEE

Structure (SMILES) | CC50 (E. coli DNA gyrase) | Gyrase inhibition strong+ / weak − (E. coli DNA gyrase) | MIC (Bacillus subtilis DSM 10) | MIC [1] | MIC (E. coli BW25113; [4]) | MIC [2, 5] | MIC (E. coli DSM1116; [6]) | Rt (retention time) [3] | MIC (E. coli BW25113; Escherichia coli, BW25113, read-out: MIC E. coli BW25113) | MIC ([2]; Mycolicibacterium phlei, DSM750, read-out: MIC M. phlei) | MIC (E. coli DSM1116; Escherichia coli, DSM1116, read-out: MIC E. coli DSM1116)
COc1c(NC(=O)c2ccc(NC(=O)c3ccc(NC(=O)[C@H](Cc4c[nH]nn4)NC(=O)c4ccc(NC(=O)c5ccc(C#N)cc5)cc4)cn3)c(OC)c2O)ccc(C(=O)O)c1O [compound 4] | 12 nM | + | 0.125 µg/mL (≈ 0.146 µM) | 0.125 µg/mL (≈ 0.146 µM) | ≤ 0.016 µg/mL | 4 µg/mL (≈ 4.68 µM) | 0.031 µg/mL (≈ 0.0363 µM) | 8.20 min |  |  | 
COc1c(NC(=O)c2ccc(NC(=O)c3ccc(NC(=O)[C@H](Cc4c[nH]nn4)NC(=O)c4ccc(NC(=O)[C@@H](C)Oc5ccc(O)cc5)cc4)cn3)c(OC)c2O)ccc(C(=O)O)c1O [compound 9] |  | + | 1 µg/mL (≈ 1.12 µM) | 2 µg/mL (≈ 2.25 µM) | 0.063 µg/mL (≈ 0.0708 µM) |  | 0.063 µg/mL (≈ 0.0708 µM) | 7.78 min |  |  | 
COc1c(NC(=O)c2ccc(NC(=O)c3ccc(NC(=O)[C@H](Cc4c[nH]nn4)NC(=O)c4ccc(NC(=O)c5ccc6ccccc6n5)cc4)cn3)c(OC)c2O)ccc(C(=O)O)c1O [compound 11] | 18 nM | + | ≤ 0.016 µg/mL | ≤ 0.016 µg/mL | ≤ 0.016 µg/mL | 0.5 µg/mL (≈ 0.568 µM) | ≤ 0.016 µg/mL | 9.49 min |  |  | 
COc1c(NC(=O)c2ccc(NC(=O)c3ccc(NC(=O)[C@H](Cc4c[nH]nn4)NC(=O)c4ccc(NC(=O)c5cc6ccccc6cn5)cc4)cn3)c(OC)c2O)ccc(C(=O)O)c1O [compound 12] |  | + | 0.063 µg/mL (≈ 0.0715 µM) | 0.063 µg/mL (≈ 0.0715 µM) |  |  |  | 8.74 min | ≤ 0.016 µg/mL | 1 µg/mL (≈ 1.14 µM) | ≤ 0.016 µg/mL
COc1c(NC(=O)c2ccc(NC(=O)c3ccc(NC(=O)[C@H](Cc4c[nH]nn4)NC(=O)c4ccc(NC(=O)c5cnc6ccccc6c5)cc4)cn3)c(OC)c2O)ccc(C(=O)O)c1O [compound 13] |  | + | 0.125 µg/mL (≈ 0.142 µM) | 0.125 µg/mL (≈ 0.142 µM) | ≤ 0.016 µg/mL | 1 µg/mL (≈ 1.14 µM) | 0.031 µg/mL (≈ 0.0352 µM) | 8.07 min |  |  | 
COc1c(NC(=O)c2ccc(NC(=O)c3ccc(NC(=O)[C@H](Cc4c[nH]nn4)NC(=O)c4ccc(NC(=O)c5ccc6ncccc6c5)cc4)cn3)c(OC)c2O)ccc(C(=O)O)c1O [compound 14] |  | + | 0.25 µg/mL (≈ 0.284 µM) | 0.125 µg/mL (≈ 0.142 µM) | ≤ 0.016 µg/mL | 4 µg/mL (≈ 4.54 µM) | 0.016 µg/mL (≈ 0.0182 µM) | 7.67 min |  |  | 
COc1c(NC(=O)c2ccc(NC(=O)c3ccc(NC(=O)[C@H](Cc4c[nH]nn4)NC(=O)c4ccc(NC(=O)c5ccc6nc(C)ccc6c5)cc4)cn3)c(OC)c2O)ccc(C(=O)O)c1O [compound 16] |  | + |  |  |  |  |  | 6.94 min |  |  | 
COc1c(NC(=O)c2ccc(NC(=O)c3ccc(NC(=O)[C@H](Cc4c[nH]nn4)NC(=O)c4ccc(NC(=O)c5c[nH]c6ccccc6c5=O)cc4)cn3)c(OC)c2O)ccc(C(=O)O)c1O [compound 17] |  | + | ≤ 0.016 µg/mL | ≤ 0.016 µg/mL | 0.063 µg/mL (≈ 0.0702 µM) | 8 µg/mL (≈ 8.92 µM) | 0.031 µg/mL (≈ 0.0346 µM) | 7.98 min |  |  | 
CCn1cc(C(=O)Nc2ccc(C(=O)N[C@@H](Cc3c[nH]nn3)C(=O)Nc3ccc(C(=O)Nc4ccc(C(=O)Nc5ccc(C(=O)O)c(O)c5OC)c(O)c4OC)nc3)cc2)c(=O)c2ccc(C)nc21 [compound 18] |  | − | 0.063 µg/mL (≈ 0.067 µM) | 0.031 µg/mL (≈ 0.033 µM) | 0.063 µg/mL (≈ 0.067 µM) | ≥ 8 µg/mL | 0.031 µg/mL (≈ 0.033 µM) | 9.24 min |  |  | 
CCn1cc(C(=O)Nc2ccc(C(=O)N[C@@H](Cc3c[nH]nn3)C(=O)Nc3ccc(C(=O)Nc4ccc(C(=O)Nc5ccc(C(=O)O)c(O)c5OC)c(O)c4OC)nc3)cc2)c(=O)c2cc3c(cc21)OCO3 [compound 19] |  | − | 0.031 µg/mL (≈ 0.032 µM) | 0.016 µg/mL (≈ 0.0165 µM) | ≤ 0.016 µg/mL | 0.25 µg/mL (≈ 0.258 µM) | 0.016 µg/mL (≈ 0.0165 µM) | 8.45 min |  |  | 
COc1c(NC(=O)c2ccc(NC(=O)c3ccc(NC(=O)[C@H](Cc4c[nH]nn4)NC(=O)c4ccc(NC(=O)c5cc(=O)c6cc(F)ccc6o5)cc4)cn3)c(OC)c2O)ccc(C(=O)O)c1O [compound 20] |  | + | 0.125 µg/mL (≈ 0.136 µM) | 0.063 µg/mL (≈ 0.0688 µM) | ≤ 0.016 µg/mL | 2 µg/mL (≈ 2.18 µM) | ≤ 0.016 µg/mL | 8.60 min |  |  | 

Reference: publication PMC11979685, “Synthesis of Derivatives of the Antibiotic Albicidin: The N‐Terminal Fragment as Key to Control Potency and Resistance Mediated by the Binding Protein AlbA” (Chemistry (Weinheim an Der Bergstrasse, Germany), 2025)
